This experiment deals with human iPS cell Toe strain. Put plainly: Effect to promote differentiation from human iPS cells into insulin-producing cells (insulin-positive cell rate, Reference Example 1). The experiment is classed as cell-based. Details: key to Activity: the sum of activity values at the two concentrations was obviously higher than the control untreated with compounds while being lower than the positive control was expressed as +; the sum was equivalent to the positive control was expressed as ++; the sum was higher than the positive control was expressed as +++. The conditions noted are these: activity intensity: sum of activity values (increment in insulin-positive cell rate) at 2 μM and 10 μM compared with positive control (compound of Synthesis Example 1). The text has this:
The evaluation system of the effect (efficacy) to promote differentiation from human iPS cells into insulin-producing cells was constructed with reference to known information (Non Patent Document 6). Further, the medium used in each differentiation stage was also produced with reference to known information (differentiation media A to E (Media A to E) described in Non Patent Document 6 were used respectively for stages 1 to 5; however, a medium free from GLP-1 receptor agonist and nicotinamide was used as differentiation medium E).
In order to evaluate the efficacy of each compound, the compound of Synthesis Example 1 was used as a positive control, and dimethylsulfoxide (DMSO) (SIGMA, D2650) with a final concentration of 0.1% was used as a control untreated with compounds. Each compound was dissolved in DMSO, and two types of compound solutions were prepared so as to have final concentrations of 2 μM and 10 μM after the compound was added to the medium. In the following evaluation, the compound solutions were added to the medium to 0.1% that is the final concentration of DMSO.
First, induction from human iPS cell Toe strain (National Institutes of Biomedical Innovation, Health and Nutrition) into cells on day 7 of culture (2 days after replacement with differentiation medium C (cells in the differentiation process from FOXA2-positive primitive gut tube cells into PDX1-positive pancreatic progenitor cells)) was performed according to the method of Non Patent Document 6 for “inducing differentiation from human iPS cells into pancreatic β cells”, and the cells were collected and thereafter stored in liquid nitrogen using Bambanker (NIPPON Genetics Co, Ltd.) at 1×10^7 cells/mL/tube, to produce a cell stock for evaluation. The cell stock was dissolved at the start of the evaluation of efficacy, suspended in differentiation medium C for stage 3 (DMEM high glucose (Life technologies, 11965092), 0.25 μM SANT-1, 0.1 μM LDN193189 (Stemgent, 04-0074), 10 μM SB431542, 2 μM Retinoic acid (Stemgent, 04-0021), 1% B27 serum free supplement (Life technologies, 17504044) and thereafter seeded in a 96-well plate (Corning, #3340) coated with Synthemax II (Corning, #5656) at 1×10^5 cells/well. After culturing for 2 days, the medium was removed, and new differentiation medium C for stage 3 with the compound or only DMSO added was added thereto at 100 μL/well. After culturing for 2 days, the medium was removed, and new differentiation medium D for stage 4 (DMEM high glucose, 0.1 μM LDN193189, 5 μM TGF-β type I receptor kinase inhibitor II (Calbiochem 616452), 0.3 μM (−)-indolactam V (Enzo life science ALX-420-011-C300), 1% B27 serum free supplement) with the compound or only DMSO added was added thereto at 100 μL/well. After culturing for 2 to 3 days, the medium was removed, and new differentiation medium E for stage 5 (GLP-1 receptor agonist and nicotinamide-free; Knockout […] (Life technologies, 12660012), 1% B27 serum free supplement) with the compound or only DMSO added was added thereto at 200 μL/well. After culturing for 2 days, the medium was removed, and a 4% paraformaldehyde phosphorus acid buffer (Wako, 163-20145) was added thereto at 150 μL/well and left standing for 30 to 60 minutes at room temperature to fix the cells. A phosphorus acid buffer (PBS) (Takara, T9181) containing 1% Triton X-100 (Sigma, T8787) was left standing for 15 minutes at room temperature, then washed with PBS-T (Takara, T9183), and was blocked for 1 hour using 20% Blocking One (Nacalai tesque, Tokyo, Japan) diluted with PBS-T at room temperature. After the removal of Blocking One, guinea pig anti-insulin antibody (Abcam, ab7842) diluted 200-fold with 20% Blocking One was added thereto at 50 μL/well, followed by standing at 4° C. overnight. […]
On to `O=C1CC(C(=O)Nc2ncc(-c3ccc(OC(F)(F)F)cc3)s2)n2cccc21` (stereo not shown) [Example 58], for which the Activity entry is on record as “++”.
Turning to `O=C1CCC(C(=O)Nc2nc3ccc(-c4ccc(OC(F)(F)F)cc4)cc3s2)n2cccc21` (stereo not shown) [Example 59], the Activity entry is “+++”.
In the case of `O=C1CCC(C(=O)Nc2nc3ccc(-c4ccc(OC(F)F)cc4)cc3s2)n2cccc21` (stereo not shown) [Example 60], the Activity result was “++”.
The result for `O=C1CCC(C(=O)Nc2nc3ccc(-c4ccc5c(c4)OC(F)(F)O5)cc3s2)n2cccc21` (stereo not shown) [Example 61] reads “+”; that for `Cc1cc2n(c1)C(C(=O)Nc1ncc(-c3ccc(OC(F)(F)F)cc3)s1)CCC2=O` (stereo not shown) [Example 62], “+++”; that for `Cc1cc2n(c1)C(C(=O)Nc1ncc(-c3ccc(OC(C)(C)C)cc3)s1)CCC2=O` (stereo not shown) [Example 63], “+++”.
The result for `O=C1CCC(C(=O)Nc2ncc(-c3ccc(OC(F)(F)F)cc3)s2)n2cc(Cl)cc21` (stereo not shown) [Example 64] reads “++”; that for `CC1(C(=O)Nc2ncc(-c3ccc(OC(F)(F)F)cc3)s2)CCC(=O)c2cccn21` (stereo not shown) [Example 65], “+++”.
On to `Cc1ccc(-c2cnc(NC(=O)C3(C)CCC(=O)c4cccn43)s2)cc1` (stereo not shown) [Example 66], for which the Activity result was “++”.
The result for `Cc1cccc(-c2cnc(NC(=O)C3(C)CCC(=O)c4cccn43)s2)c1` (stereo not shown) [Example 67] reads “++”; that for `CC1(C(=O)Nc2ncc(-c3ccc4c(c3)OC(F)(F)O4)s2)CCC(=O)c2cccn21` (stereo not shown) [Example 68], “++”; that for `CC(C)Oc1ccc(-c2cnc(NC(=O)C3(C)CCC(=O)c4cccn43)s2)cc1` (stereo not shown) [Example 69], “++”.
The result for `Cc1cc(-c2cnc(NC(=O)C3(C)CCC(=O)c4cccn43)s2)ccc1OC(F)(F)F` (stereo not shown) [Example 70] reads “++”; that for `CC1(C(=O)Nc2ncc(-c3ccc(OC(F)(F)F)c(Cl)c3)s2)CCC(=O)c2cccn21` (stereo not shown) [Example 71], “+++”.
On to `CC1(C(=O)Nc2ncc(-c3cccc(OC(F)(F)F)c3)s2)CCC(=O)c2cccn21` (stereo not shown) [Example 72], for which the Activity entry is on record as “+++”.
Next, `O=C1CCC(C(=O)Nc2ccc(-c3ccc(OC(F)(F)F)cc3)cc2)n2cccc21` (stereo not shown) [Example 73]: “+”; `O=C1CCC(C(=O)Nc2ccc(-c3ccc4c(c3)OC(F)(F)O4)cc2)n2cccc21` (stereo not shown) [Example 74]: “+”; `O=C1CCC(C(=O)Nc2ccc(-c3ccc(OC(F)F)cc3)cc2)n2cccc21` (stereo not shown) [Example 75]: “+”.
Regarding `O=C1CCC(C(=O)Nc2ccc(-c3ccc(OC(F)(F)F)c(Cl)c3)cc2)n2cccc21` (stereo not shown) [Example 76], the Activity entry is given as “+”.
For the compound `O=C1CCC(C(=O)Nc2ccc(-c3ccc(OC(F)(F)F)cc3)cc2)n2c(Br)ccc21` (stereo not shown) [Example 77], the Activity result is “+”.
The result for `O=C1CCC(C(=O)Nc2ccc(-c3ccc(OC(F)(F)F)cc3)cc2F)n2cccc21` (stereo not shown) [Example 78] reads “++”.
With `O=C1CCC(C(=O)Nc2ccc(-c3ccc(OC(F)(F)F)c(Cl)c3)cc2F)n2cccc21` (stereo not shown) [Example 79], the Activity result is “+”.
The result for `CC(C)(C)Oc1ccc(-c2ccc(NC(=O)C3CCC(=O)c4cccn43)c(F)c2)cc1` (stereo not shown) [Example 80] reads “+”; that for `Cc1cc(-c2ccc(OC(F)(F)F)cc2)ccc1NC(=O)C1CCC(=O)c2cccn21` (stereo not shown) [Example 81], “+”.
For the compound `O=C1CCC(C(=O)Nc2ccc(-c3ccc(OC(F)(F)F)cc3)cn2)n2cccc21` (stereo not shown) [Example 82], the Activity result is listed as “+”.
As to `O=C1CCC(C(=O)Nc2ccc3nc(-c4ccc(OC(F)(F)F)cc4)sc3c2)n2cccc21` (stereo not shown) [Example 83], the Activity entry is reported as “+”.
With `Cc1nc(NC(=O)C2CCC(=O)c3cccn32)sc1-c1ccc2c(c1)OC(F)(F)O2` (stereo not shown) [Example 84], the Activity entry was “+++”.
As for `Cc1nc(NC(=O)C2CCC(=O)c3cccn32)sc1-c1ccc(OCc2ccccc2)c(F)c1` (stereo not shown) [Example 85], the Activity result was “+++”.
With `Cc1nc(NC(=O)C2CCC(=O)c3cccn32)sc1-c1ccc(OCC(C)C)cc1` (stereo not shown) [Example 86], the Activity entry is listed as “+++”.
Consider `Cc1nc(NC(=O)C2CCC(=O)c3cccn32)sc1-c1cnc(OCC(C)C)c(Cl)c1` (stereo not shown) [Example 87], for which the Activity result is “+++”.
Next, `Cc1nc(NC(=O)C2CCC(=O)c3cccn32)sc1-c1ccc(OCC(F)(F)F)cc1` (stereo not shown) [Example 88]: “+++”; `Cc1cc(-c2sc(NC(=O)C3CCC(=O)c4cccn43)nc2C)ccc1OC(F)(F)F` (stereo not shown) [Example 89]: “+++”.
Next, `Cc1nc(NC(=O)C2CCC(=O)c3cccn32)sc1C1=CCN(C(=O)OC(C)(C)C)CC1` (stereo not shown) [Example 90]: “+++”; `Cc1nc(NC(=O)C2CCC(=O)c3cccn32)sc1-c1ccc(OC(F)F)cc1` (stereo not shown) [Example 91]: “+++”.
As for `Cc1cc(-c2ccc3nc(NC(=O)C4CCC(=O)c5cccn54)sc3c2)ccc1OC(F)(F)F` (stereo not shown) [Example 92], the Activity result is on record as “+++”.
Next, `O=C1CCC(C(=O)Nc2nc3ccc(-c4ccc(Cl)cc4)cc3s2)n2cccc21` (stereo not shown) [Example 93]: “+++”; `O=C1CCC(C(=O)Nc2nc3ccc(-c4ccc(F)cc4)cc3s2)n2cccc21` (stereo not shown) [Example 94]: “+++”.
Regarding `O=C(c1ccccc1)c1ccc(-c2cnc(NC(=O)C3CCC(=O)c4cccn43)s2)cc1` (stereo not shown) [Example 95], the Activity entry is reported as “+++”.
The result for `CC(C)c1nc(NC(=O)C2CCC(=O)c3cccn32)sc1-c1ccc(OC(F)(F)F)cc1` (stereo not shown) [Example 96] reads “+”; that for `CC(C)C(=O)N1CC=C(c2cnc(NC(=O)C3CCC(=O)c4cccn43)s2)CC1` (stereo not shown) [Example 97], “++”.
Turning to `CC(C)NC(=O)N1CC=C(c2cnc(NC(=O)C3CCC(=O)c4cccn43)s2)CC1` (stereo not shown) [Example 98], the Activity entry is given as “++”.
Next, `COC(=O)c1nc(NC(=O)C2CCC(=O)c3cccn32)sc1-c1ccc(OCC(F)(F)F)cc1` (stereo not shown) [Example 99]: “++”; `COC(=O)c1nc(NC(=O)C2CCC(=O)c3cccn32)sc1-c1ccc(OC(C)(C)C)cc1` (stereo not shown) [Example 100]: “+”.

(Values after patent US20220339260A1, “METHOD FOR PRODUCING INSULIN-PRODUCING CELL USING DIHYDROINDOLIZINONE DERIVATIVES” (TOKYO INSTITUTE OF TECHNOLOGY, priority 2019, published 2022).)
